Blank lines part the entries; values can stand above or below the compound they belong to.
Experiments:
CSA/Cat K complex = molecular target: T1, CSA/Cat K complex (Homo sapiens, UniProt P43235); test: Fluoresceinamine-labeled CSA/Cat K complex formation fluorescence assay; format: binding; details: 120 nM Cat K; 0.6 μg/ml FL-CSA; excitation 300 nm, emission 604 nm
T1 construct: may comprise the native mature cathepsin K peptide
T1 sequence (P43235 115-329): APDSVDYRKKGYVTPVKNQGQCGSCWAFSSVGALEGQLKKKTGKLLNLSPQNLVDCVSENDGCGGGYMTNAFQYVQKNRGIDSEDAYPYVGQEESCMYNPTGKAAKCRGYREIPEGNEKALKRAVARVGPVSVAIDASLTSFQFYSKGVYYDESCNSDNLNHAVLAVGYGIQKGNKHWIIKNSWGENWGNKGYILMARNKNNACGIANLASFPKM
Experimental: Curve 1: 120 nM Cat K, then 0.6 μg/ml FL-CSA, and then 3 μg/ml dextran sulfate; Curve 2:,0.6 μg/ml FL-CSA, then 120 nM Cat K, and then 3 μg/ml dextran sulfate.
The pH was adjusted to pH 11 by addition of 5 M NaOH. […] The mixture was kept overnight at 4° C. for the coupling reaction. Subsequently, the mixture was concentrated to 1 ml using a SpeedVac concentrator and purified on a PD-10 column and eluded by 50 mM sodium acetate buffer, pH 5.5.
Cat K at a final concentration of 120 nM was added to 1 ml 100 mM sodium acetate buffer, pH 5.5 containing 2 mM EDTA/DTT using 2 milliliter cuvettes. The fluorescence signal for the protein alone is close to zero. […] After the addition of complex formation inhibitors, the fluorescence signal dropped to zero (FIG. 1). This assay allows the simple and convenient screening of compounds capable to interfere with complex formation.

cathepsin K/CSA complex = molecular target: T2, cathepsin K/CSA complex (Homo sapiens, UniProt P43235); test: Soluble type I collagen digestion by cathepsin K, analysed by SDS-PAGE; format: biochemical; details: 28° C.; for collagenase activity of the complex formed with cathepsin K (type I collagen): 0.15% polymer, pH 5.5; for effect on type I collagen degradation by cathepsin K in the presence of CSA: 0.15% test substance + 0.15% CSA, 800 nM cathepsin K
T2 construct: may comprise the native mature cathepsin K peptide
T2 sequence (P43235 115-329): T1 sequence (P43235 115-329)
Experimental: Soluble type I bovine collagen was digested with 800 nM cathepsin K at 28° C., in 100 mM sodium acetate buffer pH 5.5, containing 2.5 mM EDTA/DTT. The reaction was stopped by the addition of 10 μM E-64 after various time periods and the samples were analyzed by 4-20% SDS-Page. […] The reaction was stopped by the addition of 10 μM E-64 after 8 h of incubation and the samples were analyzed by 4-20% SDS-polyacrylarnide electrophoresis.
Soluble type I bovine collagen was digested with 800 nM purified recombinant human cathepsin K and gelatin (soluble type I collagen was heated for 20 min at 70 C) with 0.5 nM cathepsin K at 28° C. and 37 C, in 100 mM sodium acetate buffer, pH 5.5, containing 2.5 mM EDTA/DTT. […] The reaction was stopped by the addition of 10 μM E-64 after 8 h of incubation and the samples were analyzed by 4-20% SDS-polyacrylamide electrophoresis.
The reactions were stopped by the addition of 10 μM E-64 and the samples were analyzed by 4-20% SDS-Page.
(§1) The elution buffer was 100 mM sodium acetate, pH 5.5, 1 mM EDTA/DTT. […] The reaction was stopped by the addition of 10 μM E-64 and the samples were analyzed by 4-20% SDS-Page.
as §1
The reaction was stopped by the addition of 10 μM E-64 and the samples were analyzed by 4-20% SDS-Page.
as §1, §1

cathepsin K [1] = molecular target: T3, cathepsin K (Homo sapiens, UniProt P43235); test: Superdex 200 gel filtration of cathepsin K preincubated with polymers; format: binding; details: for elution volume (Ve) of the complex with cathepsin K: 30 μg cathepsin K preincubated with 0.15% polymer, Superdex 200, no NaCl; for effect on CSA/cathepsin K complex formation: 0.15% test substance + 0.15% CSA, gel filtration; for formation of a high molecular weight complex with cathepsin K: 0.15% test substance without CSA
T3 construct: may comprise the native mature cathepsin K peptide
T3 sequence (P43235 115-329): T1 sequence (P43235 115-329)
Experimental: The elution buffer was 100 mM sodium acetate, pH 5.5, 1 mM EDTA/DTT.
The protein elution was recorded at OD280 nm and fractions were assayed for the hydrolysis of the cathepsin K substrate Z-Leu-Arg-MCA. […] The sample was loaded into the well of a 0.5% agarose gel and separated at room temperature at 55 V, 250 mA for 30 min in a running buffer containing 125 mM sodium acetate, pH 5.0,0.5 mM EDTA, 1 mM DTT, 40 mM NaCl, and 0.1% Chaps. The gel was dried and subsequently exposed to an X-ray film. The conditions for lane 3 were modified by the addition of 300 mM NaCl into the agarose gel and running buffer. […] Activity assays were performed using Z-LR-MCA as substrate in 100 mM sodium acetate buffer, pH 5.5, containing 2.5 mM EDTA/DTT and 0.5 nM recombinant human cathepsin K.
30 μg of cathepsin K were preincubated with elution buffer containing 0.15% low molecular fraction (V3 67.2 ml) of dermatan sulfate (DS) 0.15% 2-15 kD poly-D-Glu, or 0.15% 10 kD dextran sulfate for 20 min, and then applied to a Superdex 200 column. The elution buffer was 100 mM sodium acetate, pH 5.5, containing 1 mM EDTA/DTT.
as §1, §1, §1, §1

cathepsin K [2] = molecular target: T3, cathepsin K; test: Agarose gel electrophoretic mobility shift assay of cathepsin K complexes; format: binding; details: for effect on CSA/cathepsin K complex formation: 0.15% test polymer + 0.15% CSA, mobility shift; for affinity to cathepsin K relative to CSA: inferred from competition with 0.15% CSA
Experimental: The protein elution was recorded at OD280 nm and fractions were assayed for the hydrolysis of the cathepsin K substrate Z-Leu-Arg-MCA. […] The gel was dried and subsequently exposed to an X-ray film. […] Activity assays were performed using Z-LR-MCA as substrate in 100 mM sodium acetate buffer, pH 5.5, containing 2.5 mM EDTA/DTT and 0.5 nM recombinant human cathepsin K.
After exposure of the dried gel to an X-ray film, the signal of free cathepsin K was densitometrically determined and the amount of cathepsin K in the complex was calculated (cat Kcompley=cat Ktotal−cat Kfree).
Samples were subsequently mixed with non-reducing protein sample buffer, DNA dye, and melted agarose gel (melted at 37 C; 0.4% final concentration) at 37 C and embedded into a pre-made wells of a 0.5% agarose gel (running conditions: 25° C.; 55 V, 250 mA for 30 min). The gel was stained with toluidine blue for glycosaminoglycans and coomassie blue for protein.

[3] = Mobility shift assay of complex formation of proteases with CSA; format: binding; details: 50 ng [125I]DCG-04 labeled protease; 0.1% CSA
Experimental: The gel was run at about 25° C. 55 V, 250 mA for 30 min, then dried and developed the radio signal on a film.

Compound: [Cl-].[Na+] [NaCl]
effect on cathepsin K complex formation (cathepsin K [1]; elution in the presence of 300 mM NaCl, cathepsin K/CSA mixture): inhibits the formation of cathepsin K complexes
effect on cathepsin K/CSA complex (cathepsin K [2]; 300 mM NaCl in agarose gel and running buffer, 0.1% CSA): the complex dissociated

Compound: Cat L: human cathepsin L, closely related cysteine protease
complex formation with CSA [3]: Only cathepsin K formed a stable complex

Compound: heparan sulfate
effect on fluorescence signal of FL-CSA/Cat K complex (CSA/Cat K complex): decrease the fluorescence signal

Compound: dermatan sulfate
elution volume (Ve) of the complex with cathepsin K (cathepsin K [1]): 14 mL
effect on fluorescence signal of FL-CSA/Cat K complex (CSA/Cat K complex): decrease the fluorescence signal

Compound: dextran
effect on type I collagen degradation by cathepsin K in the presence of CSA (cathepsin K/CSA complex): identical
formation of a high molecular weight complex with cathepsin K (cathepsin K [1]): did not form a high molecular weight complex with cathepsin K
effect on fluorescence signal of FL-CSA/Cat K complex (CSA/Cat K complex): did not show any effect

Compound: poly-lysine
effect on fluorescence signal of FL-CSA/Cat K complex (CSA/Cat K complex): did not show any effect

Now from value to compound, other results behind:

effect on fluorescence signal of FL-CSA/Cat K complex (CSA/Cat K complex): decrease the fluorescence signal
Compound: poly-glutamic acid

effect on fluorescence signal of FL-CSA/Cat K complex (CSA/Cat K complex): decrease the fluorescence signal
Compound: poly-aspartic acid

collagenase activity of the complex formed with cathepsin K (type I collagen) (cathepsin K/CSA complex): did not exhibit collagenase activity
elution volume (Ve) of the complex with cathepsin K (cathepsin K [1]): 13.5 mL
effect on CSA/cathepsin K complex formation (cathepsin K [2]): blocked
effect on fluorescence signal of FL-CSA/Cat K complex (CSA/Cat K complex): decrease the fluorescence signal
Compound: dextran sulfate
effect on type I collagen degradation by cathepsin K in the presence of CSA (cathepsin K/CSA complex): prevents the degradation of type I collagen
effect on CSA/cathepsin K complex formation (cathepsin K [1]): prevented the formation of a cathepsin K/CSA complex
affinity to cathepsin K relative to CSA (cathepsin K [2]): bind with a higher affinity to cathepsin K than CSA

effect on type I collagen degradation by cathepsin K in the presence of CSA (cathepsin K/CSA complex): identical
effect on CSA/cathepsin K complex formation (cathepsin K [1]): did not interfere with complex formation
effect on fluorescence signal of FL-CSA/Cat K complex (CSA/Cat K complex): did not show any effect
Compound: CC(=O)N[C@H]1C(O)O[C@H](CO)[C@H](OS(=O)(=O)O)[C@@H]1O[C@@H]1OC(C(=O)O)=C[C@H](O)[C@H]1O (stereo partly drawn) [CSA disaccharide, chondroitin disaccharide-4S]
formation of a high molecular weight complex with cathepsin K (cathepsin K [1]): unable to generate high-molecular complexes with cathepsin K

effect on fluorescence signal of FL-CSA/Cat K complex (CSA/Cat K complex): did not show any effect
Compound: poly-alanine

collagenase activity of the complex formed with cathepsin K (type I collagen) (cathepsin K/CSA complex): did not exhibit collagenase activity
elution volume (Ve) of the complex with cathepsin K (cathepsin K [1]): 14.2 mL
effect on CSA/cathepsin K complex formation (cathepsin K [2]): blocked
Compound: poly-D-Glu
effect on type I collagen degradation by cathepsin K in the presence of CSA (cathepsin K/CSA complex): prevents the degradation of type I collagen
effect on CSA/cathepsin K complex formation (cathepsin K [1]): prevented the formation of a cathepsin K/CSA complex
affinity to cathepsin K relative to CSA (cathepsin K [2]): bind with a higher affinity to cathepsin K than CSA
